Laboratory results as given in patent US20020183256A1, “Cytostatic-integrin conjugates having specifically cleavable linking units” (priority 2000, published 2002).
Read-outs that look alike come from different tables or passages of the source. *1 amine or outer side, *2 acyl side, *3 side chain or, on linkers, in order; H or OH if unused. Where a SMILES comes first, the peptide text is derived from it. [ ]: non-standard residue; d: D form. The star is where a group is joined. X6 = O=C(O)CC(NS(=O)(=O)c1ccc(-c2cccc(NC(=O)Nc3nc4ccccc4[nH]3)c2)cc1)c1cccc(N*)c1; Camptothecin(20R,20-O) = CC[C@]1(O*)C(=O)OCc2c1cc1n(c2=O)Cc2cc3ccccc3nc2-1; X2 = CCCNC(=O)Nc1cccc(S(=O)(=O)Nc2cccc(C(CC(=O)O)NC(=O)Nc3ccc(N*)cc3)c2)c1; X3 = O=C(Nc1cccc(-c2ccc(S(=O)(=O)*)cc2)c1)Nc1nc2ccccc2[nH]1; X5 = O=C(Nc1cccc(-c2cccc(S(=O)(=O)*)c2)c1)Nc1nc2ccccc2[nH]1; X1 = CCCNC(=O)Nc1cccc(S(=O)(=O)Nc2cccc(C(CC(=O)O)N*)c2)c1; NH(1,4-C6H4)NHCS = S=C(Nc1ccc(N[*:1])cc1)[*:2]; X4 = O=C(O)CC(N[*:1])c1cccc(NC(=S)[*:2])c1; CO = O=C([*:1])[*:2]

Legend:
B16F10 = experiment: Growth inhibition test (MTT), cytotoxic action on tumour cell lines; format: cell-based, mouse
Method: (§1) The human large intestine cell lines SW 480 and HT29 (ATCC No. CCL 228 and HTB38 and the mouse melanoma cell line B16F10 (CRL 6475) were grown to confluence in Roux dishes in RPMI 1640 medium with addition of 10% FCS. They were then trypsinized and taken up in RPMI plus 10% FCS to a cell count of 50,000 cells or, for B16F10, 20,000 cells per ml. 100 μl of cell suspension/well were added to a 96 microwell plate and incubated at 37° C. for 1 day in a CO2 incubator. A further 100 μl of RPMI medium and 1 μl of DMSO were then added with the test substances. The growth was checked after day 6. For this, 25 μl of MTT solution (3-(4,5-dimethylthiazol-2-yl)-2,5-diphenyltetrazolium bromide) was added to each well at a starting concentration of 5 mg/ml of H2O. The plate was incubated at 37° C. for 5 hours in a CO2 incubator. The medium was then aspirated and 100 μl of i-propanol/well were added. After shaking with 100 μl of H2O for 30 min, the extinction was measured at 595 nm using a Multiplate Reader (BIO-RAD) 3550-UV).
(§2) The cytostatic action is indicated in Table 2 as an IC50 value, in each case for the individual cell lines.

MMP-2 = target: T1, MMP-2 (Homo sapiens, UniProt P08253); experiment: Cleavage of conjugates by MMP-2 in buffer (HPLC); format: biochemical; conditions: after 6 h incubation with MMP-2; buffer pH 7.5
T1 construct: purchased Calbiochem
T1 sequence (P08253 110-660): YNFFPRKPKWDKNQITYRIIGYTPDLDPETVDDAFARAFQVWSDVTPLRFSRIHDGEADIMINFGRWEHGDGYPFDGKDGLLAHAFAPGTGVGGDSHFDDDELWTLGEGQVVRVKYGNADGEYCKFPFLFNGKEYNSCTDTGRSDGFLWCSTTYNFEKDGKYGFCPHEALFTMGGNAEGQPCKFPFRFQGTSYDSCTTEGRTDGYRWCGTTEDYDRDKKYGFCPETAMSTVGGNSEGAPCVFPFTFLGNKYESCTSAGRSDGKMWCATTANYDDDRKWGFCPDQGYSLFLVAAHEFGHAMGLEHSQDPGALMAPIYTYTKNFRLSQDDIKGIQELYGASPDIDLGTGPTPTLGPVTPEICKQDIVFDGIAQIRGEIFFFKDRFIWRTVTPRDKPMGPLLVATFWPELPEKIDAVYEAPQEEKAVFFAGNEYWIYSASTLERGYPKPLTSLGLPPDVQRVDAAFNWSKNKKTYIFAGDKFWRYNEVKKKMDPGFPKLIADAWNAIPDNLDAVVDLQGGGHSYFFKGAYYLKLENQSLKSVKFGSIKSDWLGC
Method: 2.5 μl MMP-2 (Calbiochem) with a specific activity of 60 μU/μl are incubated with 10 nM of the conjugates exemplified in the example series 1-25 in 1 ml of a medium consisting of 50 mM Tris-HCl pH 7.5, 0.2 M NaCl, 10 mM CaCL2*2H2O and 0.05% Brij 35. The enzyme mediated cleavage of the conjugates is detected by HPLC analysis using an RP18 (5 μM) column with 70% HClO4/water (0.4% v/v) as eluent A and acentonitrile as eluent B (UV detection at […]). The efficiency of the cleavage is assessed by comparing the peak areas of the intact conjugate (starting material) and the cleavage product (tripeptide conjugate of camptothecin) after 6 h and 24 h incubation (cf. Table 5).

SW 480 = experiment: Growth inhibition test (MTT), cytotoxic action on tumour cell lines; format: cell-based, human
Method: as §1, §2

HT29 = experiment: as above; format: cell-based, human
Method: as §1, §2

αvβ3 receptor = target: T2, αvβ3 receptor (Homo sapiens, UniProt P05106+P06756); experiment: αvβ3 binding test (echistatin displacement, WGA SPA beads); conditions: αvβ3 from human A375 cells
T2 construct: αvβ3 from human A375 cells was purified; endogenous in cells; host or cells: human A375 cells (receptor purified from the cells, analogous to Wong et al. 1996)
T2 sequence (P06756 31-889 limits assumed): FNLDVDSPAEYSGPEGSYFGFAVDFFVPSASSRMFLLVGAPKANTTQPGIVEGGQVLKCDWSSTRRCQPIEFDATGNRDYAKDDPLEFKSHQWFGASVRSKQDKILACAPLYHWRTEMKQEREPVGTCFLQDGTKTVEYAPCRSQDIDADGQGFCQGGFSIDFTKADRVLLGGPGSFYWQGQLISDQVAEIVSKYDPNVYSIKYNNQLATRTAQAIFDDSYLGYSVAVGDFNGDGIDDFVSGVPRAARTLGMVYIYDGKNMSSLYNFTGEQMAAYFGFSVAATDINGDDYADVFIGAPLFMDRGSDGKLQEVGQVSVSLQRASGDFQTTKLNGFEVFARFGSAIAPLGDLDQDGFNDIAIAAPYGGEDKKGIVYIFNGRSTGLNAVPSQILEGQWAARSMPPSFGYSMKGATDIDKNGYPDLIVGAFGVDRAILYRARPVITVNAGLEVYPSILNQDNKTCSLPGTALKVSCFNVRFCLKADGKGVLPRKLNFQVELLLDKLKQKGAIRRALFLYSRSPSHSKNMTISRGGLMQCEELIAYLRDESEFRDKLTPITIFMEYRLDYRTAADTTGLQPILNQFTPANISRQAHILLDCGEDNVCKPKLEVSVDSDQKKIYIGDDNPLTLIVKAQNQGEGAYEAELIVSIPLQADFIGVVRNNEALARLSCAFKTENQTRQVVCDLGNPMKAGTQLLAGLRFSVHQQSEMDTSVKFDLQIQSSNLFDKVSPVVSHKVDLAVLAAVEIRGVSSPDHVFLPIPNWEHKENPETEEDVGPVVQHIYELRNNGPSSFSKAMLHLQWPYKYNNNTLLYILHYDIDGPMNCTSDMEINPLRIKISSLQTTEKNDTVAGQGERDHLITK
T2 sequence (P06756 891-1048 partner limits assumed): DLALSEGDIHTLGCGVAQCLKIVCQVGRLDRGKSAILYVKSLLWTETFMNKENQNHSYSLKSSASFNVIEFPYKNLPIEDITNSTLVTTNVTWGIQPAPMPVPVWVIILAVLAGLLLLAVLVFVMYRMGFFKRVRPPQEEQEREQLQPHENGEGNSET
T2 sequence (P05106 27-788): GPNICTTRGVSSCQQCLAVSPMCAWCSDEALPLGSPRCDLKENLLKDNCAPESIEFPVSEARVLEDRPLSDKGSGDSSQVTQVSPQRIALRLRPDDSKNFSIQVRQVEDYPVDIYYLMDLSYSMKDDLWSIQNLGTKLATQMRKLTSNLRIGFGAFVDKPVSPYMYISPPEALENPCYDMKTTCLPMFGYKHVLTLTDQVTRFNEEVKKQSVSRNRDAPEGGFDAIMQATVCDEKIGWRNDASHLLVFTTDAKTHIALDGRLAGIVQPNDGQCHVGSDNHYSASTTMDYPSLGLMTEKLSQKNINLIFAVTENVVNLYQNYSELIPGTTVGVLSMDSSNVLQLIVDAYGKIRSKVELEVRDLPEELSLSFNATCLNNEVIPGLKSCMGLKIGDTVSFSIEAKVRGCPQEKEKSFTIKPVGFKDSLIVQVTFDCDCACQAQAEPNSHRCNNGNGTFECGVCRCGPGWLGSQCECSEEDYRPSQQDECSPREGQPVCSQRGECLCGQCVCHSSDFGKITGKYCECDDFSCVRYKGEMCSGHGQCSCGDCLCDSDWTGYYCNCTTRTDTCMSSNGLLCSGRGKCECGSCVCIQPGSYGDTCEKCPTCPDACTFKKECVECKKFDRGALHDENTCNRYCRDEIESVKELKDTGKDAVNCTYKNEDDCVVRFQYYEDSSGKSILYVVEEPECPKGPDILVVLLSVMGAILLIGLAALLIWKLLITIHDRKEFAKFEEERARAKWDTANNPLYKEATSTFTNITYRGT
Method: αvβ3 from human A375 cells was purified analogously to a procedure which was described by Wong et al. (Molecular Pharmacology, 50, 529-537 (1996)). In each case, 10 μl of αvβ3 (5 ng) in TBS pH 7.6, 2 mM CaCl2, 1 mM MgCl2, 1% n-octylglucopyranoside (Sigma); 10 μl of test substance in TBS pH 7.6, 0.1% DMSO and 45 μl of TBS pH 7.6, 2 mM CaCl2, 1 mM MgCl2, 1 mM MnCl2 were incubated at room temperature for 1 h. In each case, 25 μl of WGA SPA beads (Amersham, 4 mg/ml) and 10 μl of echistatin (0.1 μCi, Amersham, chloramine-T labelled) were then added. After 16 hours at room temperature, the samples were measured in a scintillation measuring apparatus (Wallac 1450).

[1] = read-out: IC50 values of the binding to the αvβ3 receptor
[2] = B16F10, MTT after day 6, read-out: IC50 values of the cytotoxic action on tumour cell lines, B16F10
[3] = SW480, MTT after day 6, read-out: IC50 values of the cytotoxic action on tumour cell lines, SW480
[4] = HT29, MTT after day 6, read-out: IC50 values of the cytotoxic action on tumour cell lines, HT29
[5] = IC50 values of the binding to the αvβ3 receptor

SMILES	IC50 (B16F10; mouse, 6 days) [nM]	MMP-2 mediated cleavage Peak area product/educt x100 (MMP-2)	IC50 (SW 480; human, 6 days) [nM]	IC50 (HT29; human, 6 days) [nM]	IC50 (αvβ3 receptor; [1]) [nM]	IC50 (B16F10; [2]) [nM]	IC50 (SW 480; [3]) [nM]	IC50 (HT29; [4]) [nM]	IC50 (αvβ3 receptor; [5]) [nM]
CCCNC(=O)Nc1cccc(S(=O)(=O)Nc2cccc(C(CC(=O)O)NC(=O)Nc3ccc(NC(=S)N4CCC[C@@H]4C(=O)N[C@@H](CC(C)C)C(=O)NCC(=O)N[C@H](CC(C)C)C(=O)N[C@H](Cc4c[nH]cn4)C(=O)N[C@@H](C(=O)O[C@@]4(CC)C(=O)OCc5c4cc4n(c5=O)Cc5cc6ccccc6nc5-4)C(C)C)cc3)c2)c1 (single isomer, unassigned) [Example 3]	600	25	150	200	45	–	–	–	–
CCCNC(=O)Nc1cccc(S(=O)(=O)Nc2cccc(C(CC(=O)O)NC(=O)Nc3ccc(NC(=S)N4CCC[C@@H]4C(=O)N[C@@H](CC(C)C)C(=O)NCC(=O)N[C@H](CC(C)C)C(=O)N[C@H](CC(N)=O)C(=O)N[C@@H](C(=O)O[C@@]4(CC)C(=O)OCc5c4cc4n(c5=O)Cc5cc6ccccc6nc5-4)C(C)C)cc3)c2)c1 (single isomer, unassigned) [Example 11]	400	20	150	200	300	–	–	–	–
CC[C@]1(OC(=O)[C@H](NC(=O)[C@@H](Cc2c[nH]cn2)NC(=O)[C@@H](CC(C)C)NC(=O)CNC(=O)[C@H](CC(C)C)NC(=O)[C@H]2CCCN2C(=S)Nc2cccc(C(CC(=O)O)NS(=O)(=O)c3ccc(-c4cccc(NC(=O)Nc5nc6ccccc6[nH]5)c4)cc3)c2)C(C)C)C(=O)OCc2c1cc1n(c2=O)Cc2cc3ccccc3nc2-1 (stereo partly drawn) [Example 4] (X3-[X4][dP]LG[dL][dH][dV]-{Camptothecin(20R,20-O)})	–	6	–	–	–	400	70	90	150
CC[C@]1(OC(=O)[C@H](NC(=O)[C@@H](Cc2c[nH]cn2)NC(=O)[C@@H](CC(C)C)NC(=O)CNC(=O)[C@H](CC(C)C)NC(=O)[C@H]2CCCN2C(=S)Nc2cccc(C(CC(=O)O)NS(=O)(=O)c3cccc(-c4cccc(NC(=O)Nc5nc6ccccc6[nH]5)c4)c3)c2)C(C)C)C(=O)OCc2c1cc1n(c2=O)Cc2cc3ccccc3nc2-1 (stereo partly drawn) [Example 5] (X5-[X4][dP]LG[dL][dH][dV]-{Camptothecin(20R,20-O)})	–	5	–	–	–	350	80	100	6000
CC[C@]1(OC(=O)[C@H](NC(=O)[C@@H](Cc2c[nH]cn2)NC(=O)[C@@H](CC(C)C)NC(=O)CNC(=O)[C@H](CC(C)C)NC(=O)[C@H]2CCCN2C(=O)Nc2cccc(C(CC(=O)O)NS(=O)(=O)c3ccc(-c4cccc(NC(=O)Nc5nc6ccccc6[nH]5)c4)cc3)c2)C(C)C)C(=O)OCc2c1cc1n(c2=O)Cc2cc3ccccc3nc2-1 (stereo partly drawn) [Example 7] ({X6-CO}-[dP]LG[dL][dH][dV]-{Camptothecin(20R,20-O)})	–	–	–	–	–	600	150	150	700
CCCNC(=O)Nc1cccc(S(=O)(=O)Nc2cccc(C(CC(=O)O)NC(=O)Nc3ccc(NC(=S)N4CCCC4C(=O)NC(CC(C)C)C(=O)NCC(=O)N[C@H](CC(C)C)C(=O)N[C@@H](C(=O)O[C@@]4(CC)C(=O)OCc5c4cc4n(c5=O)Cc5cc6ccccc6nc5-4)C(C)C)cc3)c2)c1 (stereo partly drawn) [Example 8]	–	–	–	–	–	350	200	150	30
CCCNC(=O)Nc1cccc(S(=O)(=O)Nc2cccc(C(CC(=O)O)NC(=O)Nc3ccc(NC(=S)N4CCC[C@@H]4C(=O)N[C@@H](CC(C)C)C(=O)NCC(=O)N[C@H](CC(C)C)C(=O)N[C@H](CC(N)=O)C(=O)N[C@@H](C(=O)O[C@@]4(CC)C(=O)OCc5c4cc4n(c5=O)Cc5cc6ccccc6nc5-4)C(C)C)cc3)c2)c1 (stereo partly drawn) [Example 9]	400	–	60	80	30	–	–	–	–
CCCNC(=O)Nc1cccc(S(=O)(=O)Nc2cccc(C(CC(=O)O)NC(=O)Nc3ccc(NC(=S)N4CCC[C@@H]4C(=O)N[C@@H](CC(C)C)C(=O)NCC(=O)N[C@H](CC(C)C)C(=O)N[C@H](CSC)C(=O)N[C@@H](C(=O)O[C@@]4(CC)C(=O)OCc5c4cc4n(c5=O)Cc5cc6ccccc6nc5-4)C(C)C)cc3)c2)c1 (stereo partly drawn) [Example 13] ({X1-CO}-[NH(1,4-C6H4)NHCS][dP]LG[dL][dC](Me)[dV]-{Camptothecin(20R,20-O)})	–	–	–	–	–	400	80	100	50
CCCNC(=O)Nc1cccc(S(=O)(=O)Nc2cccc(C(CC(=O)O)NC(=O)Nc3ccc(NC(=O)N4CCC[C@@H]4C(=O)N[C@@H](CC(C)C)C(=O)NCC(=O)N[C@H](CC(C)C)C(=O)N[C@H](Cc4c[nH]c5ccccc45)C(=O)N[C@@H](C(=O)O[C@@]4(CC)C(=O)OCc5c4cc4n(c5=O)Cc5cc6ccccc6nc5-4)C(C)C)cc3)c2)c1 (stereo partly drawn) [Example 15] ({X2-CO}-[dP]LG[dL][dW][dV]-{Camptothecin(20R,20-O)})	–	–	–	–	–	8000	1500	500	500
CCCNC(=O)Nc1cccc(S(=O)(=O)Nc2cccc(C(CC(=O)O)NC(=O)Nc3ccc(NC(=S)N4CCC[C@@H]4C(=O)N[C@@H](CC(C)C)C(=O)NCC(=O)N[C@H](CSC)C(=O)N[C@H](Cc4c[nH]cn4)C(=O)N[C@@H](C(=O)O[C@@]4(CC)C(=O)OCc5c4cc4n(c5=O)Cc5cc6ccccc6nc5-4)C(C)C)cc3)c2)c1 (stereo partly drawn) [Example 19]	300	–	60	80	20	–	–	–	–
CCCNC(=O)Nc1cccc(S(=O)(=O)Nc2cccc(C(CC(=O)O)NC(=O)Nc3ccc(NC(=S)N4CCC[C@@H]4C(=O)N[C@@H](CC(C)C)C(=O)NCC(=O)N[C@H](CC(C)C)C(=O)N[C@H](CCCCN)C(=O)N[C@H](C(=O)O[C@@]4(CC)C(=O)OCc5c4cc4n(c5=O)Cc5cc6ccccc6nc5-4)C(C)C)cc3)c2)c1 (stereo partly drawn) [Example 20] ({X1-CO}-[NH(1,4-C6H4)NHCS][dP]LG[dL][dK]V-{Camptothecin(20R,20-O)})	–	–	–	–	–	300	50	70	50
